Measured values from ChEMBL document CHEMBL2390895, “Design, synthesis and structure activity relationships of spirocyclic compounds as potent CCR1 antagonists” (Bioorg Med Chem Lett, 2013).
Values belong to the compound of their own block, whether it stands above or below them.

Tests used:
[1] = Clearance in human hepatocytes assessed per 10^6 cells; assay type: ADME, cell-based, Hepatocyte; settings: read-out: CLH
[2] = Clearance in rat hepatocytes assessed per 10^6 cells; assay type: ADME, cell-based, Hepatocyte; settings: read-out: CLH

SMILES: CNC(=O)c1ccc(O)cc1OC[C@@H](O)CN1CCC2(CC1)Cc1cc(Cl)ccc1O2
hepatocyte CLint [1]: < 4.6 µL/min/1e6 cells | hepatocyte CLint [2]: 33 µL/min/1e6 cells

SMILES: CNC(=O)c1ccc(O)cc1OC[C@@H](O)CN1CCC2(CC1)Cc1cc(F)ccc1O2
hepatocyte CLint [1]: 26 µL/min/1e6 cells | hepatocyte CLint [2]: 22 µL/min/1e6 cells

SMILES: O=C(NC1CC1)c1ccc(O)cc1OC[C@@H](O)CN1CCC2(CC1)Cc1cc(Cl)ccc1O2
hepatocyte CLint [1]: 10.6 µL/min/1e6 cells | hepatocyte CLint [2]: 28 µL/min/1e6 cells

SMILES: O=C(c1ccc(F)cc1OC[C@@H](O)CN1CCC2(CC1)Cc1cc(Cl)ccc1O2)N1CC[C@H](O)C1
hepatocyte CLint [1]: 6.8 µL/min/1e6 cells | hepatocyte CLint [2]: < 4 µL/min/1e6 cells

SMILES: O=C(c1cc(Cl)c(O)cc1OC[C@@H](O)CN1CCC2(CC1)Cc1cc(Cl)ccc1O2)N1CC[C@H](O)C1
hepatocyte CLint [1]: < 3 µL/min/1e6 cells | hepatocyte CLint [2]: 8.1 µL/min/1e6 cells

SMILES: O=C(c1ccc(O)cc1OC[C@@H](O)CN1CCC2(CC1)Cc1cc(Cl)ccc1O2)N1CC[C@H](O)C1
hepatocyte CLint [1]: < 3 µL/min/1e6 cells | hepatocyte CLint [2]: 6.7 µL/min/1e6 cells

SMILES: O=C(c1ccc(O)cc1OC[C@@H](O)CN1CCC2(CC1)Cc1cc(Cl)ccc1O2)N1CCCCC1
hepatocyte CLint [1]: 14 µL/min/1e6 cells

SMILES: COc1ccc(C(=O)NC2CC2)c(OC[C@@H](O)CN2CCC3(CC2)Cc2cc(Cl)ccc2O3)c1
hepatocyte CLint [1]: 15 µL/min/1e6 cells

Results, then the compound that gave them:

hepatocyte CLint [1]: 10 µL/min/1e6 cells
SMILES: Cc1ccc(C(=O)N2CC[C@H](O)C2)c(OC[C@@H](O)CN2CCC3(CC2)Cc2cc(F)ccc2O3)c1

hepatocyte CLint [1]: 11 µL/min/1e6 cells
SMILES: Cc1ccc(C(=O)N2CC[C@H](O)C2)c(OC[C@@H](O)CN2CCC3(CC2)Cc2cc(Cl)ccc2O3)c1

hepatocyte CLint [1]: 9.6 µL/min/1e6 cells | hepatocyte CLint [2]: 23 µL/min/1e6 cells
SMILES: O=C(c1ccc(O)cc1OC[C@@H](O)CN1CCC2(CC1)Cc1cc(Cl)ccc1O2)N1CCCC1

hepatocyte CLint [1]: 5.2 µL/min/1e6 cells | hepatocyte CLint [2]: 45 µL/min/1e6 cells
SMILES: O=C(NC1CC1)c1ccccc1OC[C@@H](O)CN1CCC2(CC1)Cc1cc(Cl)ccc1O2

hepatocyte CLint [1]: 4.6 µL/min/1e6 cells | hepatocyte CLint [2]: 20 µL/min/1e6 cells
SMILES: O=C(NC1CC1)c1ccc(F)cc1OC[C@@H](O)CN1CCC2(CC1)Cc1cc(Cl)ccc1O2
